What was measured:
Format in all cases: biochemical
PKC delta kinase = PKC delta kinase (Homo sapiens, UniProt Q05655); assay: PKC delta kinase inhibition, coupled-enzyme (NADH absorbance) assay, Ki; settings: 150 μM ATP, 46 nM PKC delta kinase, 30° C.; read-out: Ki PKC delta
Procedure, shortened: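 PKC delta in 100 mM HEPES pH 7.5, 10 mM MgCl2, 25 mM NaCl, 0.1 mM EDTA, 0.01% Brij, equilibrated 10 min at 30° C with compound from DMSO stock. Started with ATP at 150 μM final; NADH-coupled absorbance at 340 nm followed 15 min at 30° C. Ki from initial rates by non-linear regression.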

PKC alpha kinase = PKC alpha kinase (Homo sapiens, UniProt P17252); assay: PKC alpha kinase inhibition, coupled-enzyme (NADH absorbance) assay, Ki; settings: 130 μM ATP, 4.5 nM PKC alpha kinase, 30° C.
Procedure, shortened: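 Enzyme in 100 mM HEPES pH 7.5, 10 mM MgCl2, 100 μM CaCl2, 0.01% Brij, preincubated with compound 10 min at 30 °C. Reaction started with 130 μM ATP (final); NADH consumption followed at 340 nm for 15 min at 30 °C. Ki fitted by non-linear regression of initial rates.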

PKC theta kinase = PKC theta kinase (Homo sapiens, UniProt Q04759); assay: PKC theta kinase inhibition, coupled-enzyme (NADH absorbance) assay, Ki; settings: 240 μM ATP, 18 nM PKC theta kinase, 30° C.
Sequence of PKC theta kinase (Q04759 whole entry): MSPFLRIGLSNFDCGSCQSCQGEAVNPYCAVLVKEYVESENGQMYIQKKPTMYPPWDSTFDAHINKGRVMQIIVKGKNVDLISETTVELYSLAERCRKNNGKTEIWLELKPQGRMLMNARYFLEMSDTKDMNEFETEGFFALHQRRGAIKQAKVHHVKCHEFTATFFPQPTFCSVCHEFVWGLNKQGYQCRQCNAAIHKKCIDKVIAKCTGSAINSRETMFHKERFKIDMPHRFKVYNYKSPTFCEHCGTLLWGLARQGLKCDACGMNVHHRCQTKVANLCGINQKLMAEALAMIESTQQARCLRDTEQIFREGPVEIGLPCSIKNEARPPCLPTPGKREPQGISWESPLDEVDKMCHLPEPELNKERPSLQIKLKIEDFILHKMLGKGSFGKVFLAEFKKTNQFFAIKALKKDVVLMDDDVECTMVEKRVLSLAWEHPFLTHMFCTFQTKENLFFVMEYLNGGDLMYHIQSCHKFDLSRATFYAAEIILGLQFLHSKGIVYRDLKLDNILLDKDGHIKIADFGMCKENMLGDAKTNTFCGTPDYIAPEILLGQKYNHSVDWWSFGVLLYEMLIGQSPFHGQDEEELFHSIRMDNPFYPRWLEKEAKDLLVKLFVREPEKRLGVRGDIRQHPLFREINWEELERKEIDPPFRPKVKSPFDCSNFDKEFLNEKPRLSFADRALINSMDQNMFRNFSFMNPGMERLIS
Procedure, shortened: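 Coupled-enzyme kinase assay following NADH absorbance at 340 nm, in 100 mM HEPES pH 7.5, 10 mM MgCl2, 25 mM NaCl, 0.1 mM EDTA, 0.01% Brij. Compound in DMSO preincubated with enzyme 10 min at 30 °C. Ki from initial rates by non-linear regression.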

Sequence of PKC delta kinase (Q05655 whole entry): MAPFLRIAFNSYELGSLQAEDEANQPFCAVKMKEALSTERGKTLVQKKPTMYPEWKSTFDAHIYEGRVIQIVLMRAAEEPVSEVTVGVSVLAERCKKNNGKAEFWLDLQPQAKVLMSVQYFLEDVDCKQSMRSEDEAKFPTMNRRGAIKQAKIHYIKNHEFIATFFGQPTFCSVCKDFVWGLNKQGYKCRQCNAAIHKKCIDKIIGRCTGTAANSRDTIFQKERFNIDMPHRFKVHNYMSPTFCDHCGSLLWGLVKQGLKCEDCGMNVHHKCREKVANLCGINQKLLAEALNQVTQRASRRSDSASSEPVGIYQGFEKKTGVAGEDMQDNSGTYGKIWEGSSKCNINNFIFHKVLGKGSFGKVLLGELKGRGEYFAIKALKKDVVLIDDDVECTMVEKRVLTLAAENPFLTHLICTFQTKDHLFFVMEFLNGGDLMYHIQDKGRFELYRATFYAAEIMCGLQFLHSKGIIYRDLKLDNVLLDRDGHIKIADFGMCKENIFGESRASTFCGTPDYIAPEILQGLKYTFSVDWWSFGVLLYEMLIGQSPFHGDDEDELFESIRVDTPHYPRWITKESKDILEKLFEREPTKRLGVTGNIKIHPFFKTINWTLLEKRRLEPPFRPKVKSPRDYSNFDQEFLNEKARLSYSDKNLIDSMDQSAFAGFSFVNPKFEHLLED

CC1(N)CCCN(c2ccc(F)c(-c3n[nH]c4ncccc34)n2)C1 (stereo not drawn) [Compound 316]
Ki (PKC delta kinase): > 1.25 µM | Ki (PKC alpha kinase): > 1.25 µM | Ki (PKC theta kinase): < 0.5 µM

NCC1CCN(c2cccc(-c3n[nH]c4ncccc34)n2)CC1 [Compound 64]
Ki (PKC delta kinase): < 2.8 µM | Ki (PKC alpha kinase): > 1.25 µM | Ki (PKC theta kinase): < 0.5 µM

NC[C@@H]1CCN(c2cc(C(F)(F)F)cc(-c3n[nH]c4ncccc34)n2)C1 [Compound 420]
Ki (PKC delta kinase): > 1.25 µM | Ki (PKC alpha kinase): > 1.25 µM | Ki (PKC theta kinase): < 2.8 µM

CC(C)C[C@H]1CN(c2ccc(F)c(-c3n[nH]c4ncccc34)n2)CC[C@H]1N [Compound 152]
Ki (PKC delta kinase): < 0.5 µM | Ki (PKC alpha kinase): < 0.5 µM | Ki (PKC theta kinase): < 0.05 µM

CC(C)C[C@H]1CN(c2cc(CO)cc(-c3n[nH]c4ncccc34)n2)CCN1 [Compound 451]
Ki (PKC delta kinase): < 0.5 µM | Ki (PKC alpha kinase): < 2.8 µM | Ki (PKC theta kinase): < 0.05 µM

Cc1cc(-c2n[nH]c3ncccc23)nc(N2CCC(N)CC2)c1 [Compound 107]
Ki (PKC delta kinase): > 1.25 µM | Ki (PKC alpha kinase): > 1.25 µM | Ki (PKC theta kinase): < 0.5 µM

NC1CCCN(c2ccc(F)c(-c3n[nH]c4ncccc34)n2)C1 (stereo not drawn) [Compound 294]
Ki (PKC delta kinase): > 1.25 µM | Ki (PKC alpha kinase): > 1.25 µM | Ki (PKC theta kinase): < 0.5 µM

CC(C)C(N)C1CCCN(c2ccc(F)c(-c3n[nH]c4ncccc34)n2)C1 (stereo not drawn) [Compound 280]
Ki (PKC delta kinase): < 0.5 µM | Ki (PKC alpha kinase): < 2.8 µM | Ki (PKC theta kinase): < 0.05 µM

CC(C)C[C@H]1CN(c2cncc(-c3n[nH]c4ncccc34)n2)CCN1 [Compound 39, (S)-3-(6-(3-isobutylpiperazin-1-yl)pyrazin-2-yl)-1H-pyrazolo[3,4-b]pyridine]
Ki (PKC delta kinase): < 0.5 µM | Ki (PKC alpha kinase): < 2.8 µM | Ki (PKC theta kinase): < 0.05 µM

CC(O)(c1ccccc1)C1CN(c2ccc(F)c(-c3n[nH]c4ncccc34)n2)CCN1 (stereo not drawn) [Compound 322]
Ki (PKC delta kinase): > 1.25 µM | Ki (PKC alpha kinase): > 1.25 µM | Ki (PKC theta kinase): < 0.5 µM

FC(F)(F)c1cc(-c2n[nH]c3ncccc23)nc(N2CCNCC2)c1 [Compound 94]
Ki (PKC delta kinase): > 2 µM | Ki (PKC alpha kinase): > 1.25 µM | Ki (PKC theta kinase): > 0.7 µM

Fc1ccc(N2CCCCC2)nc1-c1n[nH]c2ncccc12 [Compound 266]
Ki (PKC delta kinase): > 1.25 µM | Ki (PKC alpha kinase): > 1.25 µM | Ki (PKC theta kinase): > 0.7 µM

FC(F)(F)c1ccc(N2CCN[C@@H](c3ccccc3)C2)nc1-c1n[nH]c2ncccc12 [Compound 129]
Ki (PKC delta kinase): < 2.8 µM | Ki (PKC alpha kinase): < 2.8 µM | Ki (PKC theta kinase): < 0.05 µM

CC(C)C[C@@]1(O)CN(c2ccc(C(F)(F)F)c(-c3n[nH]c4ncccc34)n2)CC[C@H]1N [Compound 195]
Ki (PKC delta kinase): < 0.5 µM | Ki (PKC alpha kinase): < 0.5 µM | Ki (PKC theta kinase): < 0.05 µM

CC(C)C[C@H]1CN(c2cccc(-c3n[nH]c4ncccc34)n2)CC[C@H]1O [Compound 144]
Ki (PKC delta kinase): < 2.8 µM | Ki (PKC alpha kinase): > 1.25 µM | Ki (PKC theta kinase): < 0.05 µM

Cc1ccc(-c2n[nH]c3ncccc23)nc1N1CCN[C@@H](CC(C)C)C1 [Compound 40]
Ki (PKC delta kinase): < 2.8 µM | Ki (PKC alpha kinase): > 1.25 µM | Ki (PKC theta kinase): < 0.5 µM

CC(F)(F)CC1CN(c2cccc(-c3n[nH]c4ncccc34)n2)CCN1 (stereo not drawn) [Compound 54]
Ki (PKC delta kinase): < 0.5 µM | Ki (PKC alpha kinase): < 2.8 µM | Ki (PKC theta kinase): < 0.05 µM

CC(C)C[C@@H]1CN(c2ccc(C(F)(F)F)c(-c3n[nH]c4ncccc34)n2)CCN1 [Compound 193]
Ki (PKC delta kinase): > 1.25 µM | Ki (PKC alpha kinase): > 1.25 µM | Ki (PKC theta kinase): < 0.5 µM

CC(C)=CC1CN(c2ccc(C(F)(F)F)c(-c3n[nH]c4ncccc34)n2)CCN1 (stereo not drawn) [Compound 104]
Ki (PKC delta kinase): < 2.8 µM | Ki (PKC alpha kinase): < 2.8 µM | Ki (PKC theta kinase): < 0.05 µM

CC(C)C(C)(O)C1CN(c2nc(-c3n[nH]c4ncccc34)ccc2F)CCN1 (stereo not drawn) [Compound 373]
Ki (PKC delta kinase): < 0.05 µM | Ki (PKC alpha kinase): < 0.5 µM | Ki (PKC theta kinase): < 0.001 µM

CC(C)(N)C1CCCN(c2ccc(F)c(-c3n[nH]c4ncccc34)n2)C1 (stereo not drawn) [Compound 310]
Ki (PKC delta kinase): < 0.5 µM | Ki (PKC alpha kinase): < 2.8 µM | Ki (PKC theta kinase): < 0.5 µM
